From the NIST ThermoML archive (doi:10.1021/je8009336)

Experiments:
[1] = refractive index (Na D-line) (dimensionless); details: 101.33 kPa, Liquid, Standard Abbe refractometry
[2] = Liquid; for mass density: Vibrating tube method; for speed of sound: Vibrating Tube Densimeter
[3] = refractive index (Na D-line) (dimensionless); xn = mol fraction of the nth substance listed; details: 313.15 K, 101 kPa, Liquid, Standard Abbe refractometry
[4] = xn = mol fraction of the nth substance listed; details: 313.15 K, 101 kPa, Liquid; for speed of sound: Vibrating Tube Densimeter; for mass density: Vibrating tube method

c1ccccc1 [benzene]
[1]
Details | refractive index
298.15 K | 1.49775
313.15 K | 1.48777

[2]
Details | mass density, 298.15 K [kg/m3] | mass density, 313.15 K [kg/m3] | speed of sound, 313.15 K [m/s]
101 kPa | – | 857.5 | 1230.5
101.33 kPa | 873.5 | – | –

c1ccccc1 [benzene] + C1CCCC1
x2 = 0
Details | mass density [kg/m3] | refractive index | speed of sound [m/s]
[3] | – | 1.48777 | –
[4] | 857.5 | – | 1230.5

c1ccccc1 [benzene] + C1CCCCC1
x2 = 0
Details | mass density [kg/m3] | refractive index | speed of sound [m/s]
[3] | – | 1.48777 | –
[4] | 857.5 | – | 1230.5

c1ccccc1 [benzene] + CC1CCCCC1
x2 = 0
Details | mass density [kg/m3] | refractive index | speed of sound [m/s]
[3] | – | 1.48777 | –
[4] | 857.5 | – | 1230.5

C1CCCCC1 [cyclohexane]
[1]
Details | refractive index
298.15 K | 1.42353
313.15 K | 1.41513

[2]
Details | mass density, 298.15 K [kg/m3] | mass density, 313.15 K [kg/m3] | speed of sound, 313.15 K [m/s]
101 kPa | – | 759.6 | 1181.7
101.33 kPa | 773.8 | – | –

C1CCCCC1 [cyclohexane] + CCc1ccccc1
x1 = 1
Details | mass density [kg/m3] | refractive index | speed of sound [m/s]
[3] | – | 1.41513 | –
[4] | 759.6 | – | 1181.7

C1CCCCC1 [cyclohexane] + Cc1ccccc1
Details | mass density, [4] [kg/m3] | refractive index, [3] | speed of sound, [4] [m/s]
x1 = 0.0377 | 844.4 | 1.48212 | 1236.8
x1 = 0.0967 | 838.2 | 1.47761 | 1230
x1 = 0.1945 | 828.5 | 1.47007 | 1220.1
x1 = 0.2433 | 823.4 | 1.46621 | 1215.4
x1 = 0.3985 | 808.6 | 1.45475 | 1202.3
x1 = 0.5672 | 793.4 | 1.44276 | 1191.4
x1 = 0.5965 | 790.9 | 1.44073 | 1189.8
x1 = 0.7019 | 781.9 | 1.43356 | 1185.1
x1 = 0.7958 | 774.4 | 1.4276 | 1182.2
x1 = 0.9011 | 766.5 | 1.42097 | 1181.2
x1 = 0.95 | 763 | 1.41807 | 1180.9
x1 = 1 | 759.6 | 1.41513 | 1181.7

C1CCCCC1 [cyclohexane] + c1ccccc1
Details | mass density, [4] [kg/m3] | refractive index, [3] | speed of sound, [4] [m/s]
x1 = 0.0819 | 846.2 | 1.47958 | 1218.9
x1 = 0.1282 | 840.2 | 1.47489 | 1213.2
x1 = 0.2087 | 830.1 | 1.46761 | 1204.5
x1 = 0.2898 | 820.5 | 1.46073 | 1197
x1 = 0.4018 | 808.5 | 1.45171 | 1188.6
x1 = 0.5047 | 798.3 | 1.44414 | 1183.3
x1 = 0.6058 | 789.1 | 1.43724 | 1179.8
x1 = 0.7 | 780.9 | 1.43118 | 1177.7
x1 = 0.7989 | 773.2 | 1.42538 | 1177.3
x1 = 0.9059 | 765.7 | 1.41966 | 1178.6
x1 = 0.9505 | 762.7 | 1.41753 | 1179.7
x1 = 1 | 759.6 | 1.41513 | 1181.7

C1CCCC1 [cyclopentane]
[1]
Details | refractive index
298.15 K | 1.40342
313.15 K | 1.39456

[2]
Details | mass density, 298.15 K [kg/m3] | mass density, 313.15 K [kg/m3] | speed of sound, 313.15 K [m/s]
101 kPa | – | 725 | 1130
101.33 kPa | 740 | – | –
